In brackets after ≈: the same amount, converted by molar mass.
Experiments:
[1] = system: Streptococcus pyogenes (Group A streptococcus) 594; assay: MIC/MBC at 24 hours; format: cell-based; conditions: Streptococcus pyogenes GAS 594, Time 0 2.7E+06 CFU/ml, stationary at 37° C. in 5% CO2
Experimental: Streptococcus pyogenes (Group A streptococcus) 594 is a standard scarlet fever strain that has been extensively published on. The strain was incubated stationary at 37° C. in 5% CO2.
(§1) All solutions used in the MBC and MIC studies were prepared from a stock of 100 mg/ml of either GML, SGML or S2GML in absolute ethanol.

[2] = system: Bacillus subtilis; assay: MIC/MBC at 24 hours; format: cell-based; conditions: Time 0 1.1E+07 CFU/ml, 200 RPM shaking at 37° C.
Experimental: Bacillus subtilis, an aerobic spore-former, was incubated with 200 RPM shaking at 37° C. The strain was a recent clinical isolate at the University of Iowa, and proves to develop resistance to standard […] agents.
as §1

[3] = system: Staphylococcus aureus strain MN8; assay: MIC and MBC assay, broth dilution with plate counts; format: cell-based; conditions: for minimum bactericidal concentration (MBC) / minimum inhibitory concentration (MIC): Staphylococcus Aureus MN8 strain, 24-hour incubation, Todd Hewitt broth, aerobic 37° C.; for activity compared with GML (log CFU/mL, FIGS. 1A and 1B): staphylococcus aureus MN8 cultured with various concentrations
Experimental: For this experiment, all cultures were aerobic at 37° C. with 150 RPM gyrotary shaking. Stationary phase with this microbe is 1.0x1010 colony-forming units (CFUs)/ml. The next morning the culture was diluted to approximately 5x10^6/ml in 1 ml amounts of Todd Hewitt broth in 5 ml polystyrene test tubes. The tubes contained serial two-fold dilutions of glycerol monolaurate, SGML, or […]. The control tubes contained no GML or SGML and […] compounds. The compounds were tested in triplicate. […] The control tube contained the highest volume of ethanol that was used to deliver the compounds to each 1 ml test tube. […] Once plated, the plates were incubated aerobically for 24 hours at 37° C. Counts were made to determine CFUs/ml. The CFUs/ml were log-transformed and mean ± SD were determined. Using the standard MIC and MBC assay above with staphylococcus aureus strain […] and […] were tested with GML.

[4] = system: TSST-1; format: cell-based, Staphylococcus aureus
[5] = system: Lipase (glycerol ester hydrolase); assay: Lipase (glycerol ester hydrolase) assay, esterase resistance; format: biochemical, Staphylococcus aureus; conditions: 500 ug/ml compound; lipase 25 ug/ml; 24 hours at 37° C.
Experimental: Protocol for Lipase (glycerol ester hydrolase) assay: • 1. Two separate samples of lipase at 25 ug/ml were prepared. • 2. Microscope slides were made up with 500 ug/ml of GML, SGML, or S2ML compounds. • These slides contained 0.85% agarose (Difco) heat solubilized into PBS (0.005 M NaPO4 pH 7.2; 0.15MNaC1). • 3. The mixtures contained the compounds above their solubility limits, so they were vortexed, and 4.5 ml of the cloudy mixtures was spread onto microscope slides. • 4. The slides remained at room temperature for 1 hour to allow the agarose to solidify. • 5. The, 4 mm wells were punched into the agarose, twice per slide. • 6. 20 ul of the Lipase was added to each well. • 7. The slides were incubated for 24 hours at 37° C. • 8. The diameter squared was determined for each. This allows determination of hydrolysis of compound. • GML: 15 mm; 15 mm diameters (diameters squared=225 mm) • SGML: 12 mm; 13 mm diameters (diameters squared=144 mm and 169 mm for an average of 156.5 mm) • S2GML: 0 mm; 0 mm diameters (diameters squared=0) • 10. Diameter squared is used to the determination would be a straight line with a standard curve. • Set GML at 100% • 11. SGML is 70% as much as GML • 12. S2GML is 0% of GML

[6] = system: Candida auris; assay: MIC/MBC at 24 hours; format: cell-based; conditions: Time 0 4.5E+05 CFU/ml
Experimental: Candida auris is a newly emerging yeast (fungus) that is causing skin and bloodstream infections in humans. It easily becomes resistant to anti-fungal agents, making development of novel therapeutics a necessity. This organism is related to Candida albicans and other Candida species. The MIC and MBC in the above table show very good activity of both the SGML and S2GML versus this organism.
as §1

[7] = system: Escherichia coli; assay: MIC and MBC test with E. coli; format: cell-based; conditions: for effectiveness compared with GML (FIG. 3): E. coli MIC and MBC test; for Minimum Inhibitory Concentration / Mininum Bactericidal Concentration: E. coli laboratory strain from a patient with urinary tract infection, same conditions as S. aureus MN8
Experimental: The conditions for this test were the same as in the above example with S. aureus MN8. The E. coli strain was a laboratory strain from a patient with a confirmed urinary tract infection. The strain is maintained in the laboratory at -80° C.

[8] = system: Haemophilus influenza Non-typable; conditions: Gram Negative; Aerobe; 2 strains tested; cited from earlier work
[9] = system: Mycoplasma hominis; conditions: Cell Wall deficient; Aerobe; 1 strain tested; cited from earlier work
[10] = system: Enterobacter aerogenes; conditions: Gram Negative; Aerobe; 1 strain tested; cited from earlier work
[11] = system: Clostridium perfringens; conditions: Gram Positive; Anaerobe; 1 strain tested; cited from earlier work
[12] = system: Bacteroides fragilis; conditions: Gram Negative; Anaerobe; 2 strains tested; cited from earlier work
[13] = system: Prevotella melaninogenica; conditions: Gram Negative; Anaerobe; 1 strain tested; cited from earlier work
[14] = system: glycerol ester hydrolase (lipase); assay: Lipase production by S. aureus in presence of GML; format: cell-based, Staphylococcus aureus; conditions: S. aureus strains
[15] = system: Streptococcus suis; conditions: Gram Positive; Aerotolerant Anaerobe; 1 strain tested; cited from earlier work
[16] = system: Neisseria gonorrhoeae; conditions: Gram Negative; Aerobe; 1 strain tested; cited from earlier work
[17] = system: Pasteurella multocida; conditions: Gram Negative; Aerobe; 1 strain tested; cited from earlier work
[18] = system: Mycobacterium tuberculosis; conditions: Acid Fast; Aerobe; 1 strain tested; cited from earlier work
[19] = system: Campylobacter jejuni; conditions: Gram Negative; Aerobe; 1 strain tested; cited from earlier work
[20] = system: Streptococcus pyogenes; conditions: Gram Positive; Aerotolerant Anaerobe; 4 strains tested; cited from earlier work
[21] = system: Bacillus anthracis Sterne; conditions: Gram Positive; Aerobe; 1 strain tested; cited from earlier work
[22] = system: Proteus vulgaris; conditions: Gram Negative; Aerobe; 1 strain tested; cited from earlier work
[23] = system: Bordetella bronchiseptica; conditions: Gram Negative; Aerobe; 1 strain tested; cited from earlier work
[24] = system: Enterococcus faecalis; conditions: Gram Positive; Aerotolerant Anaerobe; 1 strain tested; cited from earlier work
[25] = system: Salmonella Minnesota; conditions: Gram Negative; Aerobe; 1 strain tested; cited from earlier work
[26] = system: Group F Streptococcus; conditions: Gram Positive; Aerotolerant Anaerobe; 1 strain tested; cited from earlier work
[27] = system: S. aureus strains; assay: Susceptibility of S. aureus strains to GML; format: cell-based, Staphylococcus aureus
[28] = system: Streptococcus sanguinis; conditions: Gram Positive; Aerotolerant Anaerobe; 1 strain tested; cited from earlier work
[29] = system: Pseudomonas aeruginosa; conditions: Gram Negative; Aerobe; 1 strain tested; cited from earlier work
[30] = system: Group G Streptococcus; conditions: Gram Positive; Aerotolerant Anaerobe; 1 strain tested; cited from earlier work
[31] = system: Burkholderia cenocepacia; conditions: Gram Negative; Aerobe; 1 strain tested; cited from earlier work
[32] = system: Peptostreptococcus species; conditions: Gram Positive; Anaerobe; 1 strain tested; cited from earlier work
[33] = system: Shigella sonnei; conditions: Gram Negative; Aerobe; 1 strain tested; cited from earlier work
[34] = system: Staphylococcus aureus; conditions: Gram Positive; Aerobe; 54 strains tested; cited from earlier work
[35] = system: Listeria monocytogenes; conditions: Gram Positive; Aerobe; 1 strain tested; cited from earlier work
[36] = system: Gram-negative bacteria with an intact lipopolysaccharide, such as Escherichia coli; assay: Killing of Gram-negative bacteria with intact lipopolysaccharide by GML; format: cell-based
[37] = system: Streptococcus pneumoniae Serotype III; conditions: Gram Positive; Aerotolerant Anaerobe; 2 strains tested; cited from earlier work
[38] = system: Mycobacterium phlei; conditions: Acid Fast; Aerobe; 1 strain tested; cited from earlier work
[39] = system: Klebsiella pneumoniae; conditions: Gram Negative; Aerobe; 1 strain tested; cited from earlier work
[40] = system: Fusobacterium species; conditions: Gram Negative; Anaerobe; 1 strain tested; cited from earlier work
[41] = system: Bacillus cereus; conditions: Gram Positive; Aerobe; 1 strain tested; cited from earlier work
[42] = system: Group C Streptococcus; conditions: Gram Positive; Aerotolerant Anaerobe; 1 strain tested; cited from earlier work
[43] = system: other Gram-positive bacteria and Gram-negative bacteria with an incomplete lipopolysaccharide; assay: Killing of other bacteria by GML; format: cell-based; conditions: other Gram-positive bacteria and Gram-negative bacteria with lipo-oligosaccharide
[44] = system: Streptococcus agalactiae; conditions: Gram Positive; Aerotolerant Anaerobe; 3 strains tested; cited from earlier work
[45] = system: Gardnerella vaginalis; conditions: Gram Negative; Aerobe; 2 strains tested; cited from earlier work
[46] = system: Escherichia coli (e. coli); conditions: Welch et al., mBio 2020; cited from earlier work
[47] = system: Escherichia coli; conditions: Gram Negative; Aerobe; 2 strains tested; cited from earlier work

CCCCCCCCCCCC(=S)SCC(O)CO (stereo not drawn) [Example S2GML, glycerol dithionomonolaureate]
MIC/MBC [1]: <0.1 µg/mL
MIC/MBC [2]: <1.0 µg/mL
minimum bactericidal concentration (MBC) [3]: 63.5 µg/mL (≈ 207 µM)
minimum inhibitory concentration (MIC) [3]: 31.125 µg/mL (≈ 102 µM)
activity compared with GML (log CFU/mL, FIGS. 1A and 1B) [3]: clearly has more activity
inhibition of TSST-1 [4]: < 4 µg/mL
hydrolysis as % of GML (diameter squared, GML set at 100%) [5]: 0%
MIC/MBC [6]: 1.0 µg/mL (≈ 3.26 µM)
effectiveness compared with GML (FIG. 3) [7]: performed similarly to GML
Minimum Inhibitory Concentration [7]: 500 µg/mL
Mininum Bactericidal Concentration [7]: 500 µg/mL

CCCCCCCCCCCC(=O)OCC(O)CO (stereo not drawn) [GML, glycerol monolaureate]
Average Bactericidal Concentration [8]: 50 mg/mL
Average Bactericidal Concentration [9]: 1 mg/mL
MIC/MBC [1]: 1.0 µg/mL (≈ 3.64 µM)
Average Bactericidal Concentration [10]: Not Susceptible
Average Bactericidal Concentration [11]: 1 mg/mL
Average Bactericidal Concentration [12]: 50 mg/mL
MIC/MBC [2]: 50 µg/mL (≈ 182 µM)
Average Bactericidal Concentration [13]: 50 mg/mL
GML concentration at which lipase cannot be produced [14]: about 300 µg/ml
MBC ([3]; Staphylococcus aureus, MN8, 24 h, read-out: minimum bactericidal concentration (MBC)): 250 µg/mL (≈ 911 µM)
MIC ([3]; Staphylococcus aureus, MN8, 24 h, read-out: minimum inhibitory concentration (MIC)): 250 µg/mL (≈ 911 µM)
inhibition of TSST-1 [4]: 16 µg/mL
Average Bactericidal Concentration [15]: 50 mg/mL
Average Bactericidal Concentration [16]: 20 mg/mL
Average Bactericidal Concentration [17]: 500 mg/mL
Average Bactericidal Concentration [18]: 100 mg/mL
Average Bactericidal Concentration [19]: 1 mg/mL
Average Bactericidal Concentration [20]: 30 mg/mL
Average Bactericidal Concentration [21]: 50 mg/mL
Average Bactericidal Concentration [22]: Not Susceptible
Average Bactericidal Concentration [23]: 1 mg/mL
Average Bactericidal Concentration [24]: 100 mg/mL
Average Bactericidal Concentration [25]: Not Susceptible
Average Bactericidal Concentration [26]: 20 mg/mL
concentration to which all S. aureus strains tested remain susceptible ([27]; all strains of S. aureus tested): ≤ 500 µg/mL
bactericidal concentration ([27]; most S. aureus strains): 250 µg/mL
Average Bactericidal Concentration [28]: 50 mg/mL
Average Bactericidal Concentration [29]: Not Susceptible
Average Bactericidal Concentration [30]: 50 mg/mL
Average Bactericidal Concentration [31]: 500 mg/mL
MIC/MBC [6]: 50 µg/mL (≈ 182 µM)
Average Bactericidal Concentration [32]: 1 mg/mL
Average Bactericidal Concentration [33]: Not Susceptible
Average Bactericidal Concentration [34]: 300 mg/mL
Mininum Bactericidal Concentration [7]: 500 µg/mL
MIC ([7]; Escherichia coli, read-out: Minimum Inhibitory Concentration): 500 µg/mL (≈ 1820 µM)
Average Bactericidal Concentration [35]: 50 mg/mL
concentration that kills ([36]; with accelerants: low pH and EDTA addition): 25 to 50 µg/mL
susceptibility to GML ([36]; without accelerants): completely resistant
Average Bactericidal Concentration [37]: 10 mg/mL
Average Bactericidal Concentration [38]: 100 mg/mL
Average Bactericidal Concentration [39]: Not Susceptible
Average Bactericidal Concentration [40]: 50 mg/mL
Average Bactericidal Concentration [41]: 50 mg/mL
Average Bactericidal Concentration [42]: 30 mg/mL
concentrations that kill [43]: 25 to 50 µg/mL
Average Bactericidal Concentration [44]: 30 mg/mL
Average Bactericidal Concentration [45]: 10 mg/mL
effectiveness against Escherichia coli [46]: not effective
Average Bactericidal Concentration [47]: Not Susceptible

CCCCCCCCCCCC(=S)OCC(O)CO (stereo not drawn) [SGML, glycerol thionomonolaureate]
MIC/MBC [1]: 0.1 µg/mL (≈ 0.344 µM)
MIC/MBC [2]: 10 µg/mL (≈ 34.4 µM)
minimum bactericidal concentration (MBC) [3]: 125 µg/mL (≈ 430 µM)
minimum inhibitory concentration (MIC) [3]: 125 µg/mL (≈ 430 µM)
activity compared with GML (log CFU/mL, FIGS. 1A and 1B) [3]: more active than GML
inhibition of TSST-1 [4]: 8 µg/mL
hydrolysis as % of GML (diameter squared, GML set at 100%) [5]: 70%
MIC/MBC [6]: 10 µg/mL (≈ 34.4 µM)
effectiveness compared with GML (FIG. 3) [7]: more effective than GML
Minimum Inhibitory Concentration [7]: 250 µg/mL
Mininum Bactericidal Concentration [7]: 250 µg/mL
